Reference: ChEMBL document CHEMBL3885881, “DrugMatrix”

Organism: Rattus norvegicus
Assay: DrugMatrix - Regimen: Daily Repeat
Format: toxicity, organism-based, Sprague-Dawley
Design: regimen Daily Repeat, gender Male, age 6-8 weeks
Details: in vivo, po, route oral GAVAGE, […]; for ABSOLUTE BASOPHIL / ABSOLUTE EOSINOPHIL / ABSOLUTE LYMPHOCYTE / ABSOLUTE MONOCYTE / ABSOLUTE SEGMENTED NEUTROPHIL / BASOPHIL / EOSINOPHIL / ERYTHROCYTE COUNT / HEMATOCRIT / HEMOGLOBIN / LEUKOCYTE COUNT / LYMPHOCYTE / MEAN CORPUSCULAR HEMOGLOBIN / MEAN CORPUSCULAR HEMOGLOBIN CONCENTRATION / MEAN CORPUSCULAR VOLUME / MONOCYTE / NEUTROPHIL / NUCLEATED RED BLOOD CELLS / PLATELET COUNT: tissue Blood; for ALANINE AMINOTRANSFERASE / ALBUMIN / ALKALINE PHOSPHATASE / ASPARTATE AMINOTRANSFERASE / BLOOD UREA NITROGEN / CARBON DIOXIDE / CHLORIDE / CHOLESTEROL / CREATINE PHOSPHOKINASE / CREATININE / GLUCOSE / LACTATE DEHYDROGENASE / LIPASE / PHOSPHORUS / POTASSIUM / SODIUM / TOTAL BILIRUBIN / TOTAL PROTEIN / URIC ACID: tissue Plasma
[1] = 3 mg/kg, 72 h, dose level Low, time 3 day
[2] = 3 mg/kg, 120 h, dose level Low, time 5 day
[3] = 250 mg/kg, 72 h, dose level High, time 3 day
[4] = 250 mg/kg, 120 h, dose level High, time 5 day

With `N#Cc1ccc(C(c2ccc(C#N)cc2)n2cncn2)cc1` [LETROZOLE] the “ABSOLUTE BASOPHIL” value [1] was 0 CELLS/uL, the “ABSOLUTE EOSINOPHIL” value [1] was 184 CELLS/uL and the “ABSOLUTE LYMPHOCYTE” value [1] was 10672.33 CELLS/uL. For the same molecule, the “ABSOLUTE MONOCYTE” value [1] was 0 CELLS/uL, the “ABSOLUTE SEGMENTED NEUTROPHIL” value [1] was 1877 CELLS/uL and the BASOPHIL [1] was 0%. For the same molecule, the EOSINOPHIL [1] was 0.67%, the “ERYTHROCYTE COUNT” value [1] was 4.51 x10E6/uL and the HEMATOCRIT [1] was 28.03%. For the same molecule, the HEMOGLOBIN [1] was 11.33 G/DL, the “LEUKOCYTE COUNT” value [1] was 12.73 x10E3/uL and the LYMPHOCYTE [1] was 88.67%. The “MEAN CORPUSCULAR HEMOGLOBIN” value [1] was 25.07 pg, the “MEAN CORPUSCULAR HEMOGLOBIN CONCENTRATION” value [1] was 40.37 G/DL and the “MEAN CORPUSCULAR VOLUME” value [1] was 62.1 fL. For the same molecule, the MONOCYTE [1] was 0%, the NEUTROPHIL [1] was 10.67% and the “NUCLEATED RED BLOOD CELLS” value [1] was 0 /100WBC. The “PLATELET COUNT” value [1] was 541.33 x10E3/uL, the “ALANINE AMINOTRANSFERASE” value [1] was 85.67 u/L and the ALBUMIN [1] was 4.07 G/DL. For the same molecule, the “ALKALINE PHOSPHATASE” value [1] was 351.67 u/L, the “ASPARTATE AMINOTRANSFERASE” value [1] was 114.67 u/L and the “BLOOD UREA NITROGEN” value [1] was 15 mg/dL. The “CARBON DIOXIDE” value [1] was 26.67 mmol/L, the CHLORIDE [1] was 105 MEQ/L and the CHOLESTEROL [1] was 72.33 mg/dL. For the same molecule, the “CREATINE PHOSPHOKINASE” value [1] was 577.67 u/L, the CREATININE [1] was 0.17 mg/dL and the GLUCOSE [1] was 196.67 mg/dL. For the same molecule, the “LACTATE DEHYDROGENASE” value [1] was 171.67 u/L, the LIPASE [1] was 8.33 u/L and the PHOSPHORUS [1] was 13.4 mg/dL. For the same molecule, the POTASSIUM [1] was 5.91 MEQ/L, the SODIUM [1] was 144 MEQ/L and the “TOTAL BILIRUBIN” value [1] was 0.2 mg/dL. For the same molecule, the “TOTAL PROTEIN” value [1] was 5.4 G/DL, the “URIC ACID” value [1] was 1.37 mg/dL and the “ABSOLUTE BASOPHIL” value [2] was 0 CELLS/uL. The “ABSOLUTE EOSINOPHIL” value [2] was 0 CELLS/uL, the “ABSOLUTE LYMPHOCYTE” value [2] was 13516.33 CELLS/uL and the “ABSOLUTE MONOCYTE” value [2] was 50.67 CELLS/uL. For the same molecule, the “ABSOLUTE SEGMENTED NEUTROPHIL” value [2] was 1033 CELLS/uL, the BASOPHIL [2] was 0% and the EOSINOPHIL [2] was 0%. The “ERYTHROCYTE COUNT” value [2] was 5.59 x10E6/uL, the HEMATOCRIT [2] was 35.97% and the HEMOGLOBIN [2] was 14.1 G/DL. The “LEUKOCYTE COUNT” value [2] was 14.6 x10E3/uL, the LYMPHOCYTE [2] was 92.67% and the “MEAN CORPUSCULAR HEMOGLOBIN” value [2] was 25.23 pg. The “MEAN CORPUSCULAR HEMOGLOBIN CONCENTRATION” value [2] was 39.17 G/DL, the “MEAN CORPUSCULAR VOLUME” value [2] was 64.33 fL and the MONOCYTE [2] was 0.33%. For the same molecule, the NEUTROPHIL [2] was 7%, the “NUCLEATED RED BLOOD CELLS” value [2] was 0 /100WBC and the “PLATELET COUNT” value [2] was 1165 x10E3/uL. For the same molecule, the “ALANINE AMINOTRANSFERASE” value [2] was 55 u/L, the ALBUMIN [2] was 4.23 G/DL and the “ALKALINE PHOSPHATASE” value [2] was 407 u/L. The “ASPARTATE AMINOTRANSFERASE” value [2] was 79.33 u/L, the “BLOOD UREA NITROGEN” value [2] was 18 mg/dL and the “CARBON DIOXIDE” value [2] was 27.67 mmol/L. The CHLORIDE [2] was 103 MEQ/L, the CHOLESTEROL [2] was 69.33 mg/dL and the “CREATINE PHOSPHOKINASE” value [2] was 252.67 u/L. For the same molecule, the CREATININE [2] was 0.22 mg/dL, the GLUCOSE [2] was 176 mg/dL and the “LACTATE DEHYDROGENASE” value [2] was 155.33 u/L. It also gave an LIPASE [2] of 11.33 u/L, a PHOSPHORUS [2] of 11.3 mg/dL and a POTASSIUM [2] of 6.08 MEQ/L. For the same molecule, the SODIUM [2] was 143.2 MEQ/L, the “TOTAL BILIRUBIN” value [2] was 0.2 mg/dL and the “TOTAL PROTEIN” value [2] was 5.8 G/DL. The “URIC ACID” value [2] was 1.3 mg/dL, the “ABSOLUTE BASOPHIL” value [3] was 0 CELLS/uL and the “ABSOLUTE EOSINOPHIL” value [3] was 0 CELLS/uL. For the same molecule, the “ABSOLUTE LYMPHOCYTE” value [3] was 16113.33 CELLS/uL, the “ABSOLUTE MONOCYTE” value [3] was 104 CELLS/uL and the “ABSOLUTE SEGMENTED NEUTROPHIL” value [3] was 1216 CELLS/uL. The BASOPHIL [3] was 0%, the EOSINOPHIL [3] was 0% and the “ERYTHROCYTE COUNT” value [3] was 5.67 x10E6/uL. The HEMATOCRIT [3] was 35.07%, the HEMOGLOBIN [3] was 14.07 G/DL and the “LEUKOCYTE COUNT” value [3] was 17.43 x10E3/uL. For the same molecule, the LYMPHOCYTE [3] was 92%, the “MEAN CORPUSCULAR HEMOGLOBIN” value [3] was 24.8 pg and the “MEAN CORPUSCULAR HEMOGLOBIN CONCENTRATION” value [3] was 40.1 G/DL. The “MEAN CORPUSCULAR VOLUME” value [3] was 61.83 fL, the MONOCYTE [3] was 0.67% and the NEUTROPHIL [3] was 7.33%. The “NUCLEATED RED BLOOD CELLS” value [3] was 0 /100WBC, the “PLATELET COUNT” value [3] was 1266.33 x10E3/uL and the “ALANINE AMINOTRANSFERASE” value [3] was 69 u/L. The ALBUMIN [3] was 3.97 G/DL, the “ALKALINE PHOSPHATASE” value [3] was 487 u/L and the “ASPARTATE AMINOTRANSFERASE” value [3] was 117 u/L. For the same molecule, the “BLOOD UREA NITROGEN” value [3] was 13 mg/dL, the “CARBON DIOXIDE” value [3] was 29 mmol/L and the CHLORIDE [3] was 102.33 MEQ/L. For the same molecule, the CHOLESTEROL [3] was 68.33 mg/dL, the “CREATINE PHOSPHOKINASE” value [3] was 365.33 u/L and the CREATININE [3] was 0.24 mg/dL. For the same molecule, the GLUCOSE [3] was 140.67 mg/dL, the “LACTATE DEHYDROGENASE” value [3] was 544.67 u/L and the LIPASE [3] was 12.33 u/L. For the same molecule, the PHOSPHORUS [3] was 11.13 mg/dL, the POTASSIUM [3] was 5.99 MEQ/L and the SODIUM [3] was 142.27 MEQ/L. The “TOTAL BILIRUBIN” value [3] was 0.23 mg/dL, the “TOTAL PROTEIN” value [3] was 5.47 G/DL and the “URIC ACID” value [3] was 1.4 mg/dL. For the same molecule, the “ABSOLUTE BASOPHIL” value [4] was 0 CELLS/uL, the “ABSOLUTE EOSINOPHIL” value [4] was 0 CELLS/uL and the “ABSOLUTE LYMPHOCYTE” value [4] was 11610.33 CELLS/uL. For the same molecule, the “ABSOLUTE MONOCYTE” value [4] was 237.67 CELLS/uL, the “ABSOLUTE SEGMENTED NEUTROPHIL” value [4] was 1485.33 CELLS/uL and the BASOPHIL [4] was 0%. For the same molecule, the EOSINOPHIL [4] was 0%, the “ERYTHROCYTE COUNT” value [4] was 6.3 x10E6/uL and the HEMATOCRIT [4] was 38.7%. For the same molecule, the HEMOGLOBIN [4] was 15.17 G/DL, the “LEUKOCYTE COUNT” value [4] was 13.33 x10E3/uL and the LYMPHOCYTE [4] was 87.33%. The “MEAN CORPUSCULAR HEMOGLOBIN” value [4] was 24.13 pg, the “MEAN CORPUSCULAR HEMOGLOBIN CONCENTRATION” value [4] was 39.23 G/DL and the “MEAN CORPUSCULAR VOLUME” value [4] was 61.5 fL. For the same molecule, the MONOCYTE [4] was 1.67%, the NEUTROPHIL [4] was 11% and the “NUCLEATED RED BLOOD CELLS” value [4] was 0 /100WBC. The “PLATELET COUNT” value [4] was 1093.67 x10E3/uL, the “ALANINE AMINOTRANSFERASE” value [4] was 36.67 u/L and the ALBUMIN [4] was 4.27 G/DL. For the same molecule, the “ALKALINE PHOSPHATASE” value [4] was 295.33 u/L, the “ASPARTATE AMINOTRANSFERASE” value [4] was 110.67 u/L and the “BLOOD UREA NITROGEN” value [4] was 15.33 mg/dL. The “CARBON DIOXIDE” value [4] was 28.67 mmol/L, the CHLORIDE [4] was 104.67 MEQ/L and the CHOLESTEROL [4] was 55.67 mg/dL. For the same molecule, the “CREATINE PHOSPHOKINASE” value [4] was 254 u/L, the CREATININE [4] was 0.21 mg/dL and the GLUCOSE [4] was 151.33 mg/dL. The “LACTATE DEHYDROGENASE” value [4] was 321.67 u/L, the LIPASE [4] was 10.67 u/L and the PHOSPHORUS [4] was 9.9 mg/dL. The POTASSIUM [4] was 4.59 MEQ/L, the SODIUM [4] was 146.27 MEQ/L and the “TOTAL BILIRUBIN” value [4] was 0.1 mg/dL. For the same molecule, the “TOTAL PROTEIN” value [4] was 5.77 G/DL and the “URIC ACID” value [4] was 1.13 mg/dL.
